Values quoted from earlier work in PubChem BioAssay AID1259410 (Chemical Carcinogenesis Research Information System (CCRIS), 2018).

Test system: rodent tumor promotion studies, tumor incidence
Assay: CCRIS tumor promotion studies

## CC(=O)Nc1ccc2c(c1)C(=O)c1ccccc1-2
Carcinogen: DIETHYLNITROSAMINE, 55-18-5, Doses [Carcinogen]: 200 MG/KG BW IN 0.9% SALINE ONCE, Doses [Promoter]: 0, 0.1 MMOL/KG BW IN POLYETHYLENE GLYCOL FOR 5 D BEGINNING 1 WK POST CARCINOGEN DOSE, 70% HEPATECTOMY PERFORMED 3 D AFTE, Route [Carcinogen]: INTRAPERITONEAL, Route [Promoter]: GAVAGE, Species: RAT, Strain/Sex: SPRAGUE-DAWLEY/MALE
  outcome: liver: hepatocellular carcinoma

## C=CC1CC=CCC1 (stereo not given)
Carcinogen: 7,12-Dimethylbenz(a)anthracene, 57-97-6, Doses [Carcinogen]: 100 ug once in sesame oil, administered 4 mo after vinylcyclohexene diepoxide dosing, Doses [Promoter]: 160 mg/kg bw for 25 days, administered daily in sesame oil, study duration 3 or 5 months, Route [Carcinogen]: Directly on ovary, Route [Promoter]: Intraperitoneal, Species: Rat, Strain/Sex: Fischer 344/Female
  outcome: ovary: tumors (non-neoplastic cystic ovaries also observed)

## CCCCCCCCCCCC(=O)OC[C@@H](O)[C@H]1OC[C@H](O)[C@H]1O
Carcinogen: 7,12-DIMETHYLBENZ(A)ANTHRACENE, Doses [Carcinogen]: TOP, Route [Carcinogen]: DERMAL, Route [Promoter]: DERMAL, Species: MOUSE, Strain/Sex: MALE
  outcome: integumentary system (skin)

## [Na+]
Carcinogen: N-BUTYL-N-(4-HYDROXYBUTYL)NITROSAMINE, 3817-11-6, Doses [Carcinogen]: 0.05% IN DRINKING WATER FOR 4 WK, Doses [Promoter]: 0, 2.34% IN DIET BEGINNING POST LAST CARCINOGEN DOSE AND CONTINUING FOR 32 WK (STUDY DURATION: 37 WK), Route [Carcinogen]: ORAL, Route [Promoter]: ORAL, Species: RAT, Strain/Sex: WISTAR/MALE
  outcome: urinary bladder: papilloma
Carcinogen: N-METHYL-N'-NITRO-N-NITROSOGUANIDINE, 70-25-7, Doses [Carcinogen]: 0.25 ML/10 G BW OF A 5 G/L DISTILLED WATER SOLUTION (7.5-8.8 MG/RAT) ONCE, Doses [Promoter]: 0, 10% IN DIET BEGINNING POST CARCINOGEN DOSE AND CONTINUING FOR STUDY DURATION (STUDY DURATION: 1 YR), Route [Carcinogen]: INTRAGASTRIC, Route [Promoter]: ORAL, Species: RAT, Strain/Sex: ACI/MALE
  outcome: forestomach: squamous carcinoma
Carcinogen: N-METHYL-N'-NITRO-N-NITROSOGUANIDINE, 70-25-7, Doses [Carcinogen]: 25 UG/ML IN DRINKING WATER FOR 25 WK, Doses [Promoter]: 0, 10% IN DIET FOR 26 WK BEGINNING 1 WK POST CARCINOGEN TREATMENT (STUDY DURATION: 52 WK), Route [Carcinogen]: ORAL, Route [Promoter]: ORAL, Species: RAT, Strain/Sex: WISTAR/MALE
  outcome: glandular stomach: adenocarcinoma
Carcinogen: N-METHYL-N'-NITRO-N-NITROSOGUANIDINE, 70-25-7, Doses [Carcinogen]: 100 PPM IN DRINKING WATER FOR 8 WK, Doses [Promoter]: 0, 5, 10% IN DIET FOR 82 WK BEGINNING POST CARCINOGEN TREATMENT (STUDY DURATION: 90 WK), Doses [Promoter]: 0, 5, 10% IN DIET FOR 82 WK BEGINNING POST CARCINOGEN TREATMENT (STUDY DURATION: 90 WK), Route [Carcinogen]: ORAL, Route [Promoter]: ORAL, Species: RAT, Strain/Sex: WISTAR/MALE
  outcome: glandular stomach: adenoma or adenocarcinoma
Carcinogen: N-METHYL-N'-NITRO-N-NITROSOGUANIDINE, 70-25-7, Doses [Carcinogen]: 100 PPM IN DRINKING WATER FOR 10 WK, Doses [Promoter]: 0, 2.5, 5% IN DIET FOR 62 WK BEGINNING POST CARCINOGEN TREATMENT (STUDY DURATION: 72 WK), Doses [Promoter]: 0, 2.5, 5% IN DIET FOR 62 WK BEGINNING POST CARCINOGEN TREATMENT (STUDY DURATION: 72 WK), Route [Carcinogen]: ORAL, Route [Promoter]: ORAL, Species: RAT, Strain/Sex: WISTAR/MALE
  outcome: stomach: adenocarcinoma
Carcinogen: N-[4-(5-NITRO-2-FURYL)-2-THIAZOLYL]FORMAMIDE, 24554-26-5, Doses [Carcinogen]: 0.2% IN DIET FOR 6 WK, Doses [Promoter]: 0, 1.34% IN PROLAB DIET FOR 72 WK BEGINNING POST CARCINOGEN TREATMENT (STUDY DURATION: 78 WK), Route [Carcinogen]: ORAL, Route [Promoter]: ORAL, Species: RAT, Strain/Sex: F344/MALE
  outcome: urinary bladder: carcinoma, carcinoma and papilloma

## O=C(O)O
Carcinogen: N-BUTYL-N-(4-HYDROXYBUTYL)NITROSAMINE, 3817-11-6, Doses [Carcinogen]: 0.05% IN DRINKING WATER FOR 4 WK, Doses [Promoter]: 0, 3% IN DIET FOR 32 WK BEGINNING 3 D POST LAST CARCINOGEN DOSE (STUDY DURATION: 36 WK, 3 D), Route [Carcinogen]: ORAL, Route [Promoter]: ORAL, Species: RAT, Strain/Sex: F344/MALE
  outcome: urinary bladder: papilloma, carcinoma
Carcinogen: N-BUTYL-N-(4-HYDROXYBUTYL)NITROSAMINE, 3817-11-6, Doses [Carcinogen]: 0.05% IN DRINKING WATER FOR 4 WK, Doses [Promoter]: 0, 3.36% IN DIET BEGINNING POST LAST CARCINOGEN DOSE AND CONTINUING FOR 32 WK (STUDY DURATION: 37 WK), Route [Carcinogen]: ORAL, Route [Promoter]: ORAL, Species: RAT, Strain/Sex: WISTAR/MALE
  outcome: urinary bladder: papilloma
Carcinogen: N-BUTYL-N-(4-HYDROXYBUTYL)NITROSAMINE; 3817-11-6; Doses [Carcinogen]: 0.05% IN DRINKING WATER FOR 4 WK; Doses [Promoter]: 0; 4% IN DIET BEGINNING POST LAST CARCINOGEN DOSE AND CONTINUING FOR 32 WK STUDY DURATION: 37 WK), Route [Carcinogen]: ORAL, Route [Promoter]: ORAL, Species: RAT, Strain/Sex: WISTAR/MALE
  outcome: urinary bladder: papilloma
Carcinogen: O-PHENYLPHENOL, 90-43-7, Doses [Carcinogen]: 1.25% IN DIET FOR 104 WK, Doses [Promoter]: 0, 0.16% IN DIET FOR 104 WK (STUDY DURATION: 104 WK), Route [Carcinogen]: ORAL, Route [Promoter]: ORAL, Species: RAT, Strain/Sex: F344/MALE
  outcome: bladder: carcinoma
Carcinogen: O-PHENYLPHENOL, 90-43-7, Doses [Carcinogen]: 1.25% IN DIET FOR 104 WK, Doses [Promoter]: 0, 0.32% IN DIET FOR 104 WK (STUDY DURATION: 104 WK), Route [Carcinogen]: ORAL, Route [Promoter]: ORAL, Species: RAT, Strain/Sex: F344/MALE
  outcome: bladder: carcinoma
Carcinogen: O-PHENYLPHENOL, 90-43-7, Doses [Carcinogen]: 1.25% IN DIET FOR 104 WK, Doses [Promoter]: 0, 0.64% IN DIET FOR 104 WK (STUDY DURATION: 104 WK), Route [Carcinogen]: ORAL, Route [Promoter]: ORAL, Species: RAT, Strain/Sex: F344/MALE
  outcome: bladder: carcinoma

## CC(C)C[C@H]1C(=O)N2CCC[C@H]2[C@]2(O)O[C@](NC(=O)[C@@H]3C=C4c5cccc6[nH]c(Br)c(c56)C[C@H]4N(C)C3)(C(C)C)C(=O)N12
Carcinogen: 3-METHYLCHOLANTHRENE, 56-49-5, Doses [Carcinogen]: 1.5 MG IN TRICAPRYLIN ONCE, Doses [Promoter]: 0, 3 MG/KG/D IN 50% ETHANOL FOR 16 CONSECUTIVE DAYS BEGINNING 2 D PRIOR TO CARCINOGEN DOSE AND AGAIN FOR 14 D BEGINNING, Route [Carcinogen]: SUBCUTANEOUS, Route [Promoter]: SUBCUTANEOUS, Species: RAT, Strain/Sex: SPRAGUE-DAWLEY/MALE
  outcome: injection site: tumor
Carcinogen: N-METHYL-N'-NITRO-N-NITROSOGUANIDINE, 70-25-7, Doses [Carcinogen]: 40 ML OF A 50 UG/ML DEIONIZED WATER SOLUTION 1/2 D FOR 25 WK (AVERAGE TOTAL DOSE 170 MG), Doses [Promoter]: 0, 1, 2, MG/KG IN 0.1 ML/KG OLIVE OIL 1/2 D FOR 25 WK ADMINISTERED POST CARCINOGEN (STUDY DURATION: 52 WK), Doses [Promoter]: 0, 1, 2, MG/KG IN 0.1 ML/KG OLIVE OIL 1/2 D FOR 25 WK ADMINISTERED POST CARCINOGEN (STUDY DURATION: 52 WK), Route [Carcinogen]: ORAL, Route [Promoter]: SUBCUTANEOUS, Species: RAT, Strain/Sex: WISTAR/MALE
  outcome: glandular stomach: adenocarcinoma

## ClC1=C(Cl)C2(Cl)C3C(Cl)C(Cl)CC3C1(Cl)C2(Cl)Cl (stereo not given)
Carcinogen: DIETHYLNITROSAMINE, 55-18-5, Doses [Carcinogen]: 20 PPM IN DRINKING WATER FOR 14 WK, Doses [Promoter]: 0, 25, 50 PPM TECHNICAL GRADE IN DIET BEGINNING 4 WK POST LAST CARCINOGEN DOSE AND CONTINUING FOR 25 WK (STUDY DURATION:, Doses [Promoter]: 0, 25, 50 PPM TECHNICAL GRADE IN DIET BEGINNING 4 WK POST LAST CARCINOGEN DOSE AND CONTINUING FOR 25 WK (STUDY DURATION:, Route [Carcinogen]: ORAL, Route [Promoter]: ORAL, Species: MOUSE, Strain/Sex: B6C3F1/MALE
  outcome: liver: adenoma or carcinoma

## ClC(Cl)=C(Cl)C(Cl)=C(Cl)Cl
Carcinogen: N-ETHYL-N-HYDROXYETHYLNITROSAMINE, 13147-25-6, Doses [Carcinogen]: 0.1% IN DRINKING WATER FOR 2 WK, Doses [Promoter]: 0, 0.1% IN DIET FOR 30 WK BEGINNING POST CARCINOGEN TREATMENT (STUDY DURATION: 32 WK), Route [Carcinogen]: ORAL, Route [Promoter]: ORAL, Species: RAT, Strain/Sex: WISTAR/MALE
  outcome: kidney: renal cell tumor

## CC(C)(c1cc(Br)c(O)c(Br)c1)c1cc(Br)c(O)c(Br)c1
Carcinogen: N-bis(2-hydroxypropyl)nitrosamine, 53609-64-6, Doses [Carcinogen]: 0.08 and 0.2% in drinking water for 4 wks at 7-10 wks of age, study duration to 39 wk of age, Doses [Promoter]: In utero (0.01, 0.1, or 1% in diet of dams) and then in drinking water of weaned offspring for 2 wk, Route [Carcinogen]: Oral, Route [Promoter]: In utero and in drinking water, Species: Rat, Strain/Sex: F344/Male (12-15/group)
  outcome: none found
